Results published in the CheMixHub ionic liquid set.

Test: xn = mol fraction of the nth substance listed

Cc1ccccc1 + CCCCCCCC[n+]1ccc2ccccc2c1.O=S(=O)([N-]S(=O)(=O)C(F)(F)F)C(F)(F)F
Settings	viscosity [mPa·s]
308.15 K, 101 kPa, x1 = 1	0.5

OCCN(CCO)CCO + CCCC[n+]1ccn(C)c1.F[B-](F)(F)F
Settings	viscosity [mPa·s]
303.15 K, 101 kPa, x1 = 1	400

CN(C)c1ccccc1 + CCCC[n+]1ccn(C)c1.O=S(=O)([O-])C(F)(F)F
100 kPa
Settings	viscosity [mPa·s]
288.15 K, x1 = 0.2998	54
288.15 K, x1 = 0.397	39.3
288.15 K, x1 = 0.6997	10.05
288.15 K, x1 = 1	1.536
293.15 K, x1 = 1	1.415
298.15 K, x1 = 0.397	25.9
298.15 K, x1 = 0.8945	2.63
308.15 K, x1 = 0.2	30.7
313.15 K, x1 = 0.2	25.2
313.15 K, x1 = 0.6997	5.03
318.15 K, x1 = 0.1	27.1
318.15 K, x1 = 0.6997	4.54
318.15 K, x1 = 0.8945	1.828
323.15 K, x1 = 1	0.92
328.15 K, x1 = 0.1	19.6
328.15 K, x1 = 0.8945	1.569
333.15 K, x1 = 0.1	16.91
333.15 K, x1 = 0.5045	6.71
333.15 K, x1 = 0.8945	1.463

C=Cn1cc[n+](CCCC)c1.NCC(=O)[O-] + O
101.3 kPa
Settings	electrical conductivity [S/m]	viscosity [mPa·s]
293.15 K, x1 = 0.5	–	59.3
293.15 K, x1 = 0.9	–	1599
303.15 K, x1 = 0.5	2.58	43.4
303.15 K, x1 = 1	0.009	9300
308.15 K, x1 = 0.1	1.11	–
308.15 K, x1 = 0.7	1.99	–
308.15 K, x1 = 0.9	0.48	–
308.15 K, x1 = 1	0.012	–
318.15 K, x1 = 0.5	3.58	–
333.15 K, x1 = 0.3	–	10.48
333.15 K, x1 = 1	–	1753
343.15 K, x1 = 0.3	–	10.08
343.15 K, x1 = 1	–	1089
353.15 K, x1 = 0.5	–	21.66
353.15 K, x1 = 0.9	–	520
353.15 K, x1 = 1	–	730

CC[n+]1ccn(C)c1.N#C[S-] + CCO
101 kPa
Settings	viscosity [mPa·s]
283.15 K, x1 = 0.8045	22.86
283.15 K, x1 = 0.8971	29.28
293.15 K, x1 = 0.8971	20.53
303.15 K, x1 = 0.0504	1.31
303.15 K, x1 = 0.2012	2.31
303.15 K, x1 = 0.951	17.12
313.15 K, x1 = 0.0504	1.1
313.15 K, x1 = 0.6016	6.04
313.15 K, x1 = 0.7018	7.47
313.15 K, x1 = 0.8971	11.5
313.15 K, x1 = 1	14.3
323.15 K, x1 = 0.7018	6.02
323.15 K, x1 = 0.951	10.17
